# Where a name gives a salt, the structure may show the parent alone.
# Molecular target: novel receptor obtainable from rat forebrain tissue
# Assay: Radioligand binding assay, displacement of [3H]-Compound A
# Conditions: competition with [3H]-Compound A (usually 20 nM), room temperature, 1 hour
# Procedure: The affinity of test compounds to the novel receptor site is assessed as follows. Whole forebrain tissue is obtained from rats. The tissue is first homogenised in buffer (usually 50 mM Tris/HCl, pH 7.4). The homogenised tissue is washed by centrifugation and resuspension in the same buffer, then stored at -70° C. until used. […] The final concentration of [3H]-Compound A in the mixture is usually 20 nM. The mixture is incubated at room temperature for 1 hour. [3H]-Compound A bound to the tissue is then separated from unbound [3H]-Compound A by filtration through Watman GF/B glass fibre filters. The filters are then washed rapidly with ice-cold buffer. The amount of radioactivity bound to the tissue trapped on the filters is measured by addition of liquid scintillation cocktail to the filters followed by counting in a liquid scintillation counter. In order to determine the amount of "specific" binding of [3H]-Compound A, parallel assays are carried out as above in which [3H]-Compound A and tissue are incubated together in the presence of unlabelled Compound A (usually 3 μM). The amount of binding of [3H]-Compound A remaining in the presence of this unlabelled compound is defined as "non-specific" binding. This amount is subtracted from the total amount of [3H]-Compound A binding (i.e. that present in the absence of unlabelled compound) to obtain the amount of "specific" binding of [3H]-Compound A to the novel site. The affinity of the binding of test compounds to the novel site can be estimated by incubating together [3H]-Compound A and tissue in the presence of a range of concentrations of the compound to be tested. The decrease in the level of specific [3H]-Compound A binding as a result of competition by increasing concentrations of the compound under test is plotted graphically, and non-linear regression analysis of the resulthant curve is used to provide an estimate of compound affinity in terms of pKi value.
row,pKi,SMILES
1,greater than 7,"COc1cc(N)c(Cl)cc1C(=O)Nc1cccc2c1CCN(C)C2.Cl [Example 1, N-(2-Methyl-1,2,3,4-tetrahydroisoquinolin-5-yl)-4-amino-5-chloro-2-methoxy-benzamide Hydrochloride]"
2,greater than 7,"COc1cc(N)c(Br)cc1C(=O)Nc1cccc2c1CCN(C)C2 [Example 7, N-(2-Methyl-1,2,3,4-tetrahydroisoquinolin-5-yl)-4-amino-5-bromo-2-methoxybenzamide]"
3,greater than 7,"CCCOc1cc(N)c(Cl)cc1C(=O)Nc1cccc2c1CCN(C)C2 [Example 10, N-(2-Methyl-1,2,3,4-tetrahydroisoquinolin-5-yl)-4-amino-5-chloro-2-propoxy-benzamide]"
4,greater than 7,"COc1cc(N)c(I)cc1C(=O)Nc1cccc2c1CCN(C)C2 [Example 13, N-(2-Methyl-1,2,3,4-tetrahydroisoquinolin-5-yl)-4-amino-5-iodo-2-methoxybenzamide]"
5,greater than 7,"COc1cc(OC)c(C(=O)Nc2cccc3c2CCN(C)C3)cc1Cl [Example 16, N-(2-Methyl-1,2;3,4-tetrahydroisoquinolin-5-yl)-5-chloro-2,4-dimethoxybenzamide]"
6,greater than 7,"COc1cc(OC)c(C(=O)Nc2cccc3c2CCN(C)C3)cc1Br [Example 17, N-(2-Methyl-1,2,3,4-tetrahydroisoquinolin-5-yl)-5-bromo-2,4-dimethoxybenzamide]"
7,greater than 7,"COc1cc(OC)c(C(=O)Nc2cccc3c2CCNC3)cc1Cl [Example 19, N-(1,2,3,4-Tetrahydroisoquinolin-5-yl)-5-chloro-2,4-dimethoxybenzamide]"
8,greater than 7,"COc1cc(C)c(Cl)cc1C(=O)Nc1cccc2c1CCN(C)C2 [Example 20, N-(2-Methyl-1,2,3,4-tetrahydroisoquinolin-5-yl)-5-chloro-2-methoxy-4-methylbenzamide]"
9,greater than 7,"CCOc1cc(OC)c(C(=O)Nc2cccc3c2CCN(C)C3)cc1Cl [Example 23, N-(2-Methyl-1,2,3,4-tetrahydroisoquinolin-5-yl)-5-chloro-4-ethoxy-2-methoxybenzamide]"
10,greater than 7,"COc1cc(C)c(Br)cc1C(=O)Nc1cccc2c1CCN(C)C2 [Example 25, N-(2-Methyl-1,2,3,4-tetrahydroisoquinolin-5-yl)-5-bromo-2-methoxy-4-methylbenzamide]"
11,greater than 7,"COc1cc(C(C)(C)C)ccc1C(=O)Nc1cccc2c1CCN(C)C2.Cl [Example 35, N-(2-Methyl-1,2,3,4-tetrahydroisoquinolin-5-yl)-4-tert-butyl-2-methoxybenzamide Hydrochloride]"
12,greater than 7,"CCc1cc(OC)c(C(=O)Nc2cccc3c2CCN(C)C3)cc1Cl [Example 37, N-(2-Methyl-1,2,3,4-tetrahydroisoquinolin-5-yl)-4-ethyl-2-methoxy-5-chloro Benzamide, Hydrochloride]"
13,greater than 7,"COc1cc(OC(C)C)c(Br)cc1C(=O)Nc1cccc2c1CCN(C)C2.Cl [Example 45, N-(2-Methyl-1,2,3,4-tetrahydroisoquinolin-5-yl)-5-bromo-4-iso-propoxy-2-methoxybenzamide, Hydrochloride]"
14,greater than 7,"COc1cc(C(C)C)c(C(F)(F)F)cc1C(=O)Nc1cccc2c1CCN(C)C2.Cl [Example 46, N-(2-Methyl-1,2,3,4-tetrahydroisoquinolin-5-yl)-4-iso-propyl-5-trifluoromethyl-2-methoxybenzamide, Hydrochloride]"
15,greater than 7,"COc1ccc(C(=O)C(C)C)cc1C(=O)Nc1cccc2c1CCN(C)C2 [Example 49, N-(2-Methyl-1,2,3,4-tetrahydroisoquinolin-5-yl) 5-iso-butyroyl-2-methoxy-benzamide Hydrochloride]"
16,greater than 7,"COc1ccc(C(=O)C(C)(C)C)cc1C(=O)Nc1cccc2c1CCN(C)C2.Cl [Example 50, N-(2-Methyl-1,2,3,4-tetrahydroisoquinolin-5-yl)-5-pivaloyl-2-methoxybenzamide, Hydrochloride]"
17,greater than 7,"COc1cc(OC)c(C(=O)Nc2ccc3c(c2)CN(C)CC3)cc1Br.Cl [Example 52, N-(2-Methyl-1,2,3,4-tetrahydroisoquinolin-7-yl)-5-bromo-2,4-dimethoxybenzamide, Hydrochloride Salt]"
18,greater than 7,"CCc1cc(OC)c(C(=O)Nc2cccc3c2CCN(C)C3)cc1C(F)(F)F.Cl [Example 68, N-(2-Methyl-1,2,3,4-tetrahydroisoquinolin-5-yl)-4-ethyl-2-methoxy-5-trifluoromethylbenzamide, Hydrochloride]"
19,greater than 7,"COc1cc(OC(C)C)c(C(C)=O)cc1C(=O)Nc1cccc2c1CCN(C)C2.Cl [Example 70, N-(2-Methyl-1,2,3,4-tetrahydroisoquinolin-5-yl)-2-methoxy-4-iso-propyloxy-5-acetyl-benzamide, Hydrochloride]"
20,greater than 7,"COc1cc(OC(C)C)c(Cl)cc1C(=O)Nc1cccc2c1CCN(C)C2.Cl [Example 71, N-(2-Methyl-1,2,3,4-tetrahydroisoquinolin-5-yl)-5-chloro-2-methoxy-4-iso-propoxybenzamide, Hydrochloride]"
